Experiments:
Type in all cases: in vivo
[1] = test system: adult unfed cat fleas (Ctenocephalides felis); test: Ctenocephalides felis oral test; settings: 48 h, 100 ppm in cattle blood, after 2 days
Description: Ctenocephalides felis—Oral Test
(§1) • Solvent: dimethyl sulfoxide
To produce a suitable preparation of active compound, 10 mg of active compound are dissolved in 0.5 mL solvent, and the concentrate is diluted with cattle blood to the desired concentration.
Approximately 20 adult unfed cat fleas (Ctenocephalides felts) are placed in flea chambers. The blood chamber, sealed with parafilm on the bottom, are filled with cattle blood supplied with compound solution and placed on the gauze covered top of the flea chamber, so that the fleas are able to suck the blood. The blood chamber is heated to 37° C. whereas the flea chamber is kept at room temperature.
After 2 days mortality in % is determined. 100% means all the fleas have been killed; 0% means none of the fleas have been killed.

[2] = test system: adult engorged female ticks (Rhipicephalus microplus); test: Rhipicephalus (Boophilus) microplus injection test; settings: 168 h, egg deposition monitored after 7 days, read-out: efficacy (infertile eggs); for pest or weed control at 4 µg/tick: 4 μg/tick injected; for pest or weed control at 20 µg/tick: 20 μg/tick injected
Description: Rhipicephalus (Boophilus) microplus—Iniectiontest
as §1
To produce a suitable preparation of active compound, 10 mg of active compound are dissolved in 0.5 mL solvent, and the concentrate is diluted with solvent to the desired concentration.
Five adult engorged female ticks (Rhipicephalus microplus) are injected with 1 μL compound solution into the abdomen. The ticks are transferred into replica plates and incubated in a climate chamber.
After 7 days egg deposition of fertile eggs is monitored. Eggs where fertility is not visible are stored in a climate chamber till hatching after about 42 days. An efficacy of 100% means all eggs are infertile; 0% means all eggs are fertile.

[3] = test system: Rhipicephalus (Boophilus) microplus larvae (strain Parkhurst, resistant against synthetic pyrethroids); test: Rhipicephalus (Boophilus) microplus in-vitro contact test, larval cattle tick; settings: 5 μg/cm^2 (=500 g/ha), after 48 hours, read-out: efficacy (larvae dead or moribund)
Description: Rhipicephalus (Boophilus) microplus—In-Vitro Contact Tests Larval Cattle Tick (Strain Parkhurst, Resistant Against Synthetic Pyrethroids)
9 mg compound is solved in 1 mL acetone and diluted with acetone to the desired concentration. 250 μL of the test solution is filled in 25 mL glass test tubes and homogeneously distributed on the inner walls by rotation and tilting on a shaking device (2 h at 30 rpm). With a compound concentration of 900 ppm, an inner surface of 44.7 cm^2 and a homogeneous distribution, a dose of 5 μg/cm^2 is achieved.
After the solvent has evaporated, each test tube is filled with 20-50 cattle tick larvae (Rhipicephalus microplus), closed with a perforated lid and incubated in a horizontal position at 85% relative humidity and 27° C. in an incubator. After 48 hours efficacy is determined. The larvae are patted on the ground of the tubes and negative geotactic behavior is recorded.
An efficacy of 100% means all larvae are dead or moribund; 0% means no larvae are dead or moribund.

[4] = test system: fall armyworm larvae (Spodoptera frugiperda); test: Spodoptera frugiperda spray test; settings: in Zea mays, 168 h
Description: Spodoptera frugiperda—Spray Test
(§2) • Solvent: 78.0 parts by weight acetone • 1.5 parts by weight dimethylformamide • Emulsifier: alkylarylpolyglycol ether
(§3) To produce a suitable preparation of active compound, 1 part by weight of active compound is mixed with the stated amount of solvents and is diluted with water, containing an emulsifier concentration of 1000 ppm, to the desired concentration. Further test concentrations are prepared by dilution with emulsifier containing water.
Maize (Zea mays) leaf sections are sprayed with a preparation of the active ingredient of the desired concentration. Once dry, the leaf sections are infested with fall armyworm larvae (Spodoptera frugiperda). After 7 days mortality in % is determined. 100% means all caterpillars have been killed and 0% means none of the caterpillars have been killed.

[5] = test system: larvae of the southern green stink bug (Nezara viridula); test: Nezara viridula spray test; settings: 96 h, after 4 days, barley plants
Description: Nezara viridula—Spray Test
(§4) • Solvent: 78.0 parts by weight of acetone • 1.5 parts by weight of dimethylformamide • Emulsifier: alkylarylpolyglycol ether
as §3, with “solvent,” for “solvents”, “and the concentrate” for “and”
Barley plants (Hordeum vulgare) are sprayed with a test solution containing the desired concentration of the active ingredient and are infested with larvae of the southern green stink bug (Nezara viridula).
After 4 days mortality in % is determined. 100% means all the stink bugs have been killed; 0% means none of the stink bugs have been killed.

[6] = test system: green peach aphid (Myzus persicae); test: Myzus persicae spray test; settings: foliar, 120 h, after 5 days, Chinese cabbage leaf disks
Description: Myzus persicae—Spray Test
as §2, §3
Chinese cabbage (Brassica pekinensis) leaf disks infected with all instars of the green peach aphid (Myzus persicae), are sprayed with a preparation of the active ingredient of the desired concentration.
After 5 days mortality in % is determined. 100% means all aphids have been killed and 0% means none of the aphids have been killed.

[7] = test system: larvae of the banded cucumber beetle (Diabrotica balteata); test: Diabrotica balteata spray test; settings: 168 h, after 7 days, wheat seeds, read-out: efficacy (seedling growth); for pest or weed control at 32 µg/disc, 100 g/ha: 100 g/ha (=32 μg/well)
Description: Diabrotica balteata—Spray Test
as §4
as §3, with “solvent,” for “solvents”, “and the concentrate” for “and”
Soaked wheat seeds (Triticum aestivum) are placed in a multiple well plate filled with agar and some water and are incubated for 1 day to germinate (5 seeds per well). The germinated wheat seeds are sprayed with a test solution containing the desired concentration of the active ingredient. Afterwards each unit is infected with 10-20 larvae of the banded cucumber beetle (Diabrotica balteata).
After 7 days efficacy in % is determined. 100% means all the seedlings have grown up like in the untreated, uninfected control; 0% means none of the seedlings have grown.

[8] = test system: adult mosquitoes Aedes aegypti strain MONHEIM; test: Aedes aegypti test (AEDSAE surface treatment & contact assay); settings: 24 hours after contact, read-out: efficacy (mortality); for mortality at 4 mg/m2: surface concentration 4 mg/m^2, 30 minutes exposure; for mortality at 20 mg/m2: surface concentration 20 mg/m^2, 30 minutes exposure
Description: Aedes aegypti Test (AEDSAE Surface Treatment & Contact Assay)
(§5) • Solvent: Aceton+2000 ppm rapeseed oil methyl ester (RME)
(§6) In order to produce a sufficient, active ingredient containing solution it is necessary to solve the test compound in the solvent-mix (acetone at 2 mg/ml/RME 2000 ppm). This solution is pipetted onto a glazed tile and after evaporation of the acetone, adult mosquitoes of the species Aedes aegypti strain MONHEIM are placed onto the dried surface. The exposure time is 30 minutes.
(§7) Mortality in percent (%) is determined 24 hours after contact of the insects to the treated surface. 100% mortality means that all tested insects are dead, whereas 0% means that no insect died.

[9] = test system: adult mosquitoes Culex quinquefasciatus strain P00; test: Culex quinquefasciatus test (CULXFA surface treatment & contact assay); settings: 24 hours after contact, read-out: efficacy (mortality); for mortality at 4 mg/m2: surface concentration 4 mg/m^2, 30 minutes exposure; for mortality at 20 mg/m2: surface concentration 20 mg/m^2, 30 minutes exposure
Description: Culex quinquefasciatus Test (CULXFA Surface Treatment & Contact Assay)
as §5
as §6, with “2 000” for “2000”, “Culex Quinquefasciatus” for “Aedes aegypti”, “P00” for “MONHEIM”, “minutes. Mortality in percent (%) is determined 24 hours after contact of the insects to the treated surface. 100% mortality means that all tested insects are dead, whereas 0% means that no insect died.” for “minutes.”

[10] = test system: adult flies Musca domestica strain WHO-N; test: Musca domestica test (MUSCDO surface treatment & contact assay); settings: 24 hours after contact, read-out: efficacy (mortality); for mortality at 4 mg/m2: surface concentration 4 mg/m^2, 30 minutes exposure; for mortality at 20 mg/m2: surface concentration 20 mg/m^2, 30 minutes exposure
Description: Musca domestica Test (MUSCDO Surface Treatment & Contact Assay)
as §5
as §6, with “flies” for “mosquitoes”, “Musca domestica” for “Aedes aegypti”, “WHO-N” for “MONHEIM”
as §7

| Compound | mortality at 100 ppm [1] [%] | pest or weed control at 4 µg/tick [2] [%] | pest or weed control at 5 µg/cm2, 5 µg/cm2 [3] [%] | pest or weed control at 20 µg/tick [2] [%] | mortality at 500 g/ha [5] [%] | mortality at 100 g/ha [6] [%] | pest or weed control at 32 µg/disc, 100 g/ha [7] [%] | further results |
| --- | --- | --- | --- | --- | --- | --- | --- | --- |
| Cc1nc([C@H](C)NC(=O)c2cc(OCC3CCOCC3)cc(C(F)(F)F)c2)n(-c2ccc(C#N)cn2)n1 [Example I-19, N-{(1S)-1-[1-(5-Cyanopyridin-2-yl)-3-methyl-1H-1,2,4-triazol-5-yl]ethyl}-3-(tetrahydro-2H-pyran-4-ylmethoxy)-5-(trifluoromethyl)benzamide] | 80 | 100 | 100 | – | – | – | – | – |
| Cc1cc(OCC2CC2)cc(C(=O)N[C@@H](C)c2ncnn2-c2ccc(C#N)cn2)c1 [Example I-3, N-{(1S)-1-[1-(5-Cyanopyridin-2-yl)-1H-1,2,4-triazol-5-yl]ethyl}-3-(cyclopropylmethoxy)-5-methylbenzamide] | 100 | 100 | – | 100 | – | – | – | mortality at 500 g/ha [4]: 100% |
| C[C@H](NC(=O)c1cc(OC(F)(F)F)cc(C(C)(C)C#N)c1)c1ncnn1-c1cnc(C#N)cn1 [Example I-56] | – | – | – | – | 100 | 90 | 100 | mortality at 100 g/ha [5]: 90%; mortality at 100 g/ha [4]: 100%; mortality at 4 mg/m2 [8]: 80 to 100%; mortality at 20 mg/m2 [8]: 80 to 100% |
| C[C@H](NC(=O)c1cccc(CC#N)c1)c1ncnn1-c1ccc(C#N)cn1 [Example I-2] | 100 | 100 | 80 | 100 | – | – | – | – |
| C[C@H](NC(=O)c1cc(OC(F)(F)F)cc(C(C)(C)C#N)c1)c1ncnn1-c1ncc(C#N)s1 [Example I-43, 3-(1-Cyano-1-methyl-ethyl)-N-[(1S)-1-[2-(5-cyanothiazol-2-yl)-1,2,4-triazol-3-yl]ethyl]-5-(trifluoromethoxy)benzamide] | – | – | – | – | 100 | 100 | 100 | mortality at 100 g/ha [5]: 100%; mortality at 4 mg/m2 [9]: 80 to 100%; mortality at 20 mg/m2 [9]: 80 to 100%; mortality at 4 mg/m2 [10]: 80 to 100%; mortality at 20 mg/m2 [10]: 80 to 100%; mortality at 100 g/ha [4]: 100%; mortality at 4 mg/m2 [8]: 80 to 100%; mortality at 20 mg/m2 [8]: 80 to 100% |
| C[C@H](NC(=O)c1cc(Cl)cc(Oc2ccc(Cl)cc2)c1)c1ncnn1-c1ccc(C#N)cn1 [Example I-8] | 90 | 80 | – | 100 | – | – | – | – |
| Cc1cc(OC2CCC2)cc(C(=O)N[C@@H](C)c2ncnn2-c2ccc(C#N)cn2)c1 [Example I-5, N-{(1S)-1-[1-(5-Cyanopyridin-2-yl)-1H-1,2,4-triazol-5-yl]ethyl}-3-(cyclobutyloxy)-5-methylbenzamide] | 100 | – | – | 100 | – | – | – | pest or weed control at 160 µg/disc, 500 g/ha ([7]; 500 g/ha (=160 μg/well)): 100% |
| C[C@H](NC(=O)c1cc(Br)cc(C=C(Cl)Cl)c1)c1ncnn1-c1ccc(C#N)cn1 [Example I-23] | 100 | 100 | – | – | – | – | – | – |
| C[C@H](NC(=O)c1cc(OC(F)(F)F)cc(C(C)(C)C#N)c1)c1ncnn1-c1ccc(C#N)cn1 [Example I-45] | – | – | 100 | – | 100 | 90 | 100 | mortality at 100 g/ha [5]: 100%; mortality at 4 mg/m2 [9]: 80 to 100%; mortality at 20 mg/m2 [9]: 80 to 100%; mortality at 4 mg/m2 [10]: 80 to 100%; mortality at 20 mg/m2 [10]: 80 to 100%; mortality at 4 mg/m2 [8]: 80 to 100%; mortality at 20 mg/m2 [8]: 80 to 100% |
| CC(C#N)c1cccc(C(=O)N[C@@H](C)c2ncnn2-c2ccc(C#N)cn2)c1 (some centres unmarked) [Example I-1] | 100 | – | 90 | 100 | – | – | – | – |
| C[C@H](NC(=O)c1cc(Cl)cc(C(C)(C)C#N)c1)c1ncnn1-c1ncc(C#N)s1 [Example I-37] | – | – | – | – | 100 | 90 | 100 | mortality at 20 mg/m2 [9]: 80 to 100%; mortality at 100 g/ha [4]: 100% |
| C[C@H](NC(=O)c1cc(Cl)cc(Cn2cc(C(F)(F)F)cn2)c1)c1ncnn1-c1ccc(C#N)cn1 [Example I-10] | 100 | 100 | – | 100 | – | – | – | – |

Source: patent US12653190B2, “Heteroaryl-triazole compounds as pesticides” (Bayer Aktiengesellschaft, priority 2020, dated 2026)
